{"source": "patent US12539298B2", "about": "“Lobinaline N-oxides as positive allosteric modulators of the dopamine transporter with potential value in the treatment of substance abuse disorders” (University of Kentucky Research Foundation, priority 2019, dated 2026)", "key": {"DAT [1]": {"biological_target": "T1, DAT (Rattus norvegicus, UniProt P23977)", "T1 sequence (P23977 whole entry)": "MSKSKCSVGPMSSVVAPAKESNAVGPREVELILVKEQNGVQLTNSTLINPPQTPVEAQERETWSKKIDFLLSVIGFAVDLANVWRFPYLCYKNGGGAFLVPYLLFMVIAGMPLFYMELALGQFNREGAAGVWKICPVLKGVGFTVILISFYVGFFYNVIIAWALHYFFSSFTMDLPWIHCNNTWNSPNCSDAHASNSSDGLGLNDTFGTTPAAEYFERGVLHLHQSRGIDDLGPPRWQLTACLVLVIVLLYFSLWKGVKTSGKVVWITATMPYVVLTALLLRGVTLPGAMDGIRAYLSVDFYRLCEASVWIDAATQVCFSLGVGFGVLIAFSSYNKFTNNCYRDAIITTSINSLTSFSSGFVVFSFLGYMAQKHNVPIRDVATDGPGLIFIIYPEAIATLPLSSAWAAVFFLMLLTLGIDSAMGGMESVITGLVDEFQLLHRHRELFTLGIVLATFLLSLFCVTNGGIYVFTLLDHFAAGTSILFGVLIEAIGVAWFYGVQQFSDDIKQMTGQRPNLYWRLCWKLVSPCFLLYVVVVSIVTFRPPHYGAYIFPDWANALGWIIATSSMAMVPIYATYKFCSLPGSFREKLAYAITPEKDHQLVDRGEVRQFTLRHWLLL", "test": "[3H]DA uptake into rat striatal synaptosomes", "assay_type": "biochemical", "parameters": "from tissue; host or cells: rat striatum (synaptosomes; homogenate)", "settings": "compound added 15 min before [3H]DA, 30 min at 37° C, read-out: IC50, inhibition of [3H]-DA uptake"}, "DAT [2]": {"biological_target": "T1, DAT", "test": "DA clearance in striatum of anesthetized rats by in vivo electrochemistry (high-speed chronoamperometry), Example 8", "parameters": "DA clearance in striatum and nucleus accumbens of urethane-anesthetized SD rats; from tissue; host or cells: striatum / nucleus accumbens of living anesthetized SD rats; species or system SD rats", "method": "DA clearance in striatum and nucleus accumbens of urethane-anesthetized SD rats was monitored by in vivo electrochemistry using high-speed chrono-amperometry [see 36]. After obtaining reproducible signals for locally applied DA, vehicle or drug was applied slowly over 10-30 sec, then 30-60 sec later the next application of DA was made, with subsequent DA applications at 5-minute intervals for 25-30 min. The DA kinetic data from each animal was analyzed using FAST software (Quanteon). […] These effects were no longer seen 3-5 minutes after lobinaline ejection. They are consistent with simple competitive inhibition of the DAT by lobinaline. […] However, the lobinaline N-oxides produce different effects. Representative data from lobinaline N-oxide, at the same concentration used for lobinaline (1 mM in 250 nl medium) are shown in FIG. 6. […] This is entirely consistent with effects on synaptosomal [3H]DA uptake in vitro above, and probably represents competitive inhibition. However, after exposure to the N-oxide there is a significant and prolonged (c20 min) increase in the first order rate of decay of the DA peak. […] This increase in rate constant induced by the N-oxide varied from 20× to 2× at increasing depths in the DV gradient.\nThe uptake rate of locally applied DA (˜100 nl; 200 μM) was measured before and 1 minute after local application of lobinaline (˜250 nl; 1 mM), 403 (˜300 nl; 250 μM) or 419 (˜300 nl; 250 μM) (FIGS. 7, 8, and 9)."}, "nicAChR": {"system": "nicAChR", "test": "45Ca2+ entry into SHSY5Y cells", "assay_type": "cell-based", "settings": "conclusion from 45Ca2+ entry", "excerpt": "Effects of lobinaline and nicotine on ^45Ca^2+ entry into SHSY5Y cells: nicAChR function can be evaluated semi-quantitatively in this cell line by measuring ^45Ca^2+ entry in response to nicotine. […] The lobinaline N-oxides have not yet been tested in this system."}, "nicAChRs [3]": {"system": "nicAChRs", "test": "[3H]DA release from superfused rat striatal slices", "assay_type": "cell-based", "settings": "100 uM superfused before nicotine", "method": "Effects of lobinaline and nicotine on [3H]DA release from superfused rat striatal slices (ref 5): rat brain striatal slices were incubated with [3H]DA for 30 min at […] before transfer to superfusion chambers. […] To evaluate the role of nicAChRs, striatal slices preloaded with [3H]-DA were pretreated with the nicAChR antagonist mecamylamine (10 μM) prior to superfusion of lobinaline (100 μM). […] With the data above from SHSY5Y cells, this supports a partial agonist action of lobinaline at nicAChRs. The N-oxides have not yet been tested in this system. Lobinaline has weak agonist effects on nicAChRs, but also has as yet unquantified antagonist effects (i.e. it acts as a partial agonist at nicAChRs)."}, "nicAChRs [4]": {"biological_target": "nicAChRs", "test": "displacement of [3H]epibatidine from rat brain homogenates", "assay_type": "binding"}, "DAT [5]": {"biological_target": "T1, DAT", "test": "dopamine uptake in striatum of isoflurane-anesthetized rats by in vivo electrochemistry, Examples 19-20", "parameters": "DA clearance in striatum and nucleus accumbens of urethane-anesthetized SD rats; from tissue; host or cells: striatum / nucleus accumbens of living anesthetized SD rats; species or system SD rats", "method": "After obtaining reproducible signals for locally applied DA (50-75 nl, 200 μM) to produce a control DA peak height below 1 uM, vehicle or drug was locally applied slowly over 10-30 sec (˜500 nl 250 μM), then 60 sec later the next application of DA was performed, with subsequent DA applications at 5-min intervals for 25 min. […] The DA kinetic data from each animal were analyzed using FAST software (Quanteon, LLC, Nicholasville KY USA). […] These parameters were compared between pre- and post-drug application by one-way ANOVA with Tukey's post hoc analysis, with significance assigned at p<0.05."}, "[6]": {"test": "conditioned place preference (abuse potential)", "assay_type": "in vivo, SD rats", "excerpt": "In conditioned place preference a chamber with distinct cues is repeatedly paired with administration of the test drug. A second chamber is repeatedly paired with a control injection. After conditioning, a test phase allows the rat to move between the chambers. If a drug is “rewarding” (i.e. has abuse potential), the rat spends more time in the drug-associated chamber. If it is aversive, the opposite result is obtained.\nMethods: 6 male and 6 female SD rats were used for each drug and dose. Test drugs (5 or 25 mg/kg lobinaline, or 25 mg/Kg of lobinaline bi-N-oxide S.C) were paired with the “less preferred” compartment (standard for drugs that may be weakly reinforcing) for 20 minutes. On the next day, rats received a control (DMSO/saline) injection and were placed in the preferred chamber. After three repeated pairings (test and control), the subjects were given access to both chambers and the time spent in each compartment was recorded and scored by an observer blind to treatment. Analysis was by two way ANOVA with post hoc Bonnferoni with significance set at p<0.05. Results. Most animals spent most of the test period in the compartment originally preferred in the drug-free state, and there were no significant differences between drug and vehicle controls."}, "DAT [7]": {"biological_target": "T1, DAT", "test": "[3H]GBR 12935 binding to rat striatal homogenate", "parameters": "from tissue; host or cells: rat striatum (synaptosomes; homogenate)"}, "alpha7-nicAChR": {"biological_target": "T2, alpha7-nicAChR (Rattus norvegicus, UniProt Q05941)", "T2 construct": "from tissue", "T2 sequence (Q05941 23-502)": "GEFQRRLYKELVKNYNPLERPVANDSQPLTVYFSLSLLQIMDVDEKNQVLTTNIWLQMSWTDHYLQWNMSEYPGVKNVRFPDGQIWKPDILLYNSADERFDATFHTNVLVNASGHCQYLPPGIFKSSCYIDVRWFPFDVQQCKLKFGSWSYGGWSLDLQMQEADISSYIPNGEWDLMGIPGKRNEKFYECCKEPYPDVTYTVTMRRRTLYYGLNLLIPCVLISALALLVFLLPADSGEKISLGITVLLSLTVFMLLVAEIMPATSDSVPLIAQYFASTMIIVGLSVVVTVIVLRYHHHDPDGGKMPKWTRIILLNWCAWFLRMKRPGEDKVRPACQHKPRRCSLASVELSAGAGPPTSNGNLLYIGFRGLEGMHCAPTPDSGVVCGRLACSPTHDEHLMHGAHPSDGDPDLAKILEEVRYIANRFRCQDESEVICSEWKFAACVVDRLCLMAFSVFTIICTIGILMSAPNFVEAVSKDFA", "test": "displacement of [3H]-methyllycaconitine", "assay_type": "binding", "settings": "alpha7-nicAChR selective radioligand"}, "[8]": {"test": "octanol/water partition (K octanol/water)", "assay_type": "physicochemical", "excerpt": "Lobinaline and the “mono”-N-oxide were separated from plant and culture material by acid/base extraction, but the bi-N-oxide was derived from lobinaline using 3-chloroperbenzoic acid. All these compounds were separated by column chromatography with identity and purity confirmed by LC/MS."}}, "data": [{"smiles": "CN1CCCC2C(c3ccccc3)C(C3=NCCCC3)C(c3ccccc3)CC21", "note": "(stereo not shown) [lobinaline]", "values": [{"measurement": "IC50", "setting": "DAT [1]", "result": 0.359, "unit": "µM"}, {"measurement": "effect on DA clearance rate", "setting": "DAT [2]; 1-minute post-application", "result": "significantly decreased"}, {"measurement": "effect on DA peak", "setting": "DAT [2]; local application 1 mM, 250 nl", "result": "non-significantly decreased"}, {"measurement": "time after ejection at which effects are no longer seen / DA clearance returns to normal", "setting": "DAT [2]; local ejection in striatum", "result": "3 to 5", "unit": "min"}, {"measurement": "reduction in DA clearance", "setting": "DAT [2]; striatum, 1 minute after local application (lobinaline ~250 nl 1 mM; 403, 419 ~300 nl 250 μM), FIGS. 7-9", "result": 50, "unit": "%"}, {"measurement": "mode of action at nicAChRs", "setting": "nicAChR", "result": "weak partial agonist"}, {"measurement": "fractional [3H]DA release induced by 10 uM nicotine after test substance", "setting": "nicAChRs [3]", "result": "completely prevented"}, {"measurement": "Ki", "setting": "nicAChRs [4]", "result": 16, "unit": "µM"}, {"measurement": "character of [3H]epibatidine displacement", "setting": "nicAChRs [4]", "result": "monophasically displaced"}, {"measurement": "release of endogenous DA", "setting": "DAT [5]; any brain region, n=8-36", "result": "Neither lobinaline nor its N-oxides ever caused release of endogenous DA"}, {"measurement": "effect on DA clearance parameters", "setting": "DAT [5]; relative to % control", "result": "small, but significant, reduction in all DA clearance parameters"}, {"measurement": "effect on amplitude of the DA signal", "setting": "DAT [5]; single local application ~500 nl 250 μM, striatum, FIGS. 10, 11", "result": "transient, a non-significant decrease in amplitude"}, {"measurement": "overt toxicity", "setting": "[6]; after 3 repeated drug administrations", "result": "no signs of overt toxicity"}, {"measurement": "sedation or locomotor activation", "setting": "[6]; lobinaline 5 or 25 mg/kg, bi-N-oxide 25 mg/Kg S.C", "result": "no sedation or locomotor activation"}, {"measurement": "conditioned place preference or aversion", "setting": "[6]; lobinaline 5 or 25 mg/kg, bi-N-oxide 25 mg/Kg S.C, three pairings", "result": "neither lobinaline nor the lobinaline bi-N-oxide produced conditioned place preference or aversion"}, {"measurement": "extent of displacement of [3H]GBR 12935", "setting": "DAT [7]", "result": "completely displaced"}, {"measurement": "Ki", "setting": "DAT [7]; read-out: Ki, displacement of [3H]GBR 12935", "result": 2.54, "unit": "µM"}, {"measurement": "Ki", "setting": "alpha7-nicAChR", "result": 15, "unit": "µM"}, {"measurement": "K octanol/water (Ko/w)", "setting": "[8]", "result": 4.8}]}]}
